The source of these data is US20250275535A1, “OLIVE TREE BIOMASS EXTRACT” (Veos Pharmaceuticals, S.L., priority 2024, published 2025).

Holding throughout (assay type): in vivo
Experiment [1] relates to Corn seeds (field hybrid 7571). Kind of experiment: Corn seed germination. As to conditions: 12 wt. % hydroxytyrosol solution, room temperature, 14 days; water control 27% (FIG. 1C), 33% (repeat, FIG. 1D). As to the method: Corn seeds (field hybrid 7571) were incubated at room temperature in a solution including 12 wt. % hydroxytyrosol for 14 days. As a control, corn seeds (field hybrid 7571) were incubated at room temperature in water for 14 days.

The test system of another experiment is Sorghum seeds (RT X 437). Nature of the experiment: Sorghum seed germination. As to conditions: 12 wt. % hydroxytyrosol solution, room temperature, 14 days; water control 36% (FIG. 2C), 29% (repeat, FIG. 2D). How it is done: Sorghum seeds (RT X 437) were incubated at room temperature in a solution including 12 wt. % hydroxytyrosol for 14 days. As a control, sorghum seeds (RT X 437) were incubated at room temperature in water for 14 days.

Experiment [2] concerns Rice seeds (Japanese cultivar, Taipei 309). Kind of experiment: Rice seed germination. As to conditions: 12 wt. % hydroxytyrosol solution, 37° C., 14 days; water control 56%. As to the method:
Rice seeds (Japanese cultivar, Taipei 309) were incubated at 37° C. in a solution including 12 wt. % hydroxytyrosol for 14 days. As a control, rice seeds (Japanese cultivar, Taipei 309) were incubated at 37° C. in water for 14 days.

The subject of a further experiment is Rice plants. Kind of experiment: Rice growth rate (column length). As to conditions: 12 wt. % hydroxytyrosol. As to the method:
Rice plants were treated with 12 wt. % hydroxytyrosol over 28 days. As a control, rice plants were treated with water over 28 days. FIG. 4 depicts a line chart showing the column length of rice plants over 28 days. Table 1 provides the column length of rice plants treated with 12 wt. % hydroxytyrosol and water after 1, 14, and 28 days.

The next experiment relates to HSP70. Nature of the experiment: Fold change in protein expression (SDS-PAGE, Western blotting, densitometry). As to conditions: 12% hydroxytyrosol, vs water control, FIG. 6. How it is done:
(§1) The effect of different hydroxytyrosol concentrations on crop stress resistance and protein production was examined. […] Protein quantification was conducted using SDS-PAGE and Western blotting for visualization, followed by densitometry analysis to measure fold increases in protein expression. Additionally, HPLC-DAD and mass spectrometry were utilized to confirm hydroxytyrosol stability and retention in plant tissue.
Background: A western blot detects proteins with antibodies after separation by electrophoresis.

Another experiment has as its system Rubisco. Described as above. As to conditions: 12% hydroxytyrosol, vs water control, FIG. 6. How it is done: as §1
For experiment [3], the system named is low molecular weight proteins (sHSPs, LTPs, pathogenesis-related proteins, and LEA proteins). Described as above. As to conditions: 12% hydroxytyrosol, vs water control, FIG. 6. As to the method:
as §1

The next experiment relates to other HSPs. The experiment is described as above. As to conditions: 12% hydroxytyrosol, vs water control, FIG. 6. How it is done:
as §1

Several values for one entry are separate records, joined by “and”; a condition that tells them apart may be missing. Identical values can stand only once.

Turning to `OCCc1ccc(O)c(O)c1` [hydroxytyrosol], in experiment [1], the corn seeds germinated was 75% and 69%. Moreover, the sorghum seeds germinated in the experiment on Sorghum seeds (RT X 437) was 78% and 77%. The compound further displayed a rice seeds germinated in experiment [2] of 74%. Further, the “column length of rice plants” value with Rice plants (1 day of treatment, water control 22 cm) is 35 cm; in the experiment with Rice plants (14 days of treatment, water control 39 cm) it was 82 cm; in the experiment on Rice plants (28 days of treatment, water control 60 cm), 112 cm. In addition, the “increase in HSP70 (fold change in protein expression)” value in the experiment with HSP70 is listed as 2.99 ×. Also, the “increase in Rubisco (fold change in protein expression)” value in the experiment with Rubisco came out at 1.72 ×. Further, the “increase in low molecular weight proteins (fold change in protein expression)” value in experiment [3] came to 4.09 ×. Also, the “increase in other HSPs (fold change in protein expression)” value in the experiment with other HSPs is given as 3.10 ×.
